{"source": "patent US20100122362A1", "about": "“CELLS EXPRESSING ALPHA-SYNUCLEIN AND USES THEREFOR” (priority 2006, published 2010)", "key": {"TS217 cells [1]": {"system": "TS217 cells", "protocol": "To determine the effect of overexpression of wild-type alpha-synuclein on cell viability using the stable, inducible system, TS217 cells were treated with 0.1 μg/mL tetracycline for three to six days to induce expression of alpha-synuclein. The relative viability of the cells was assessed at one day intervals (day 3, day 4, day 5, and day 6) by measuring the cellular ATP level in cell lysates using a ViaLight® Plus Bioassay kit (Cambrex, Rockland, Me.). Relative cell viability was calculated as the ratio of induced cells to control cells (cells not treated with tetracycline), as an indication of alpha-synuclein-induced cytotoxicity (see FIG. 3).\nTo determine whether the effect of tetracycline on cell viability was concentration-dependent, TS217 cells grown in 96 well plates were incubated with different concentrations of tetracycline for six days. Following treatment, each of the experimental cell groups were lysed and the cellular ATP measured as described above. Media with the vehicle alone (no tetracycline) served as control (FIG. 5). […]"}, "TS217 cells [2]": {"system": "TS217 cells", "assay": "Calcein AM staining of live cells", "format": "cell-based", "details": "Homo sapiens, 120 h; 0.1 μg/mL tetracycline, 5 days; read-out: number of viable cells decreased (calcein-positive cells)", "protocol": "The cytotoxicity of alpha-synuclein overexpression in TS217 cells was also assessed using the membrane-permeable dye, calcein AM. TS217 cells were plated on glass tissue culture chamber slides coated with poly-L-lysine and cultured in the absence (Control) or presence (Induced) of 0.1 μg/mL tetracycline for 5 days to induce alpha-synuclein expression. Cells were treated with 2 μM calcein AM and the fluorescence of enzyme-activated calcein AM (in live cells) was visualized using a fluorescent microscope (Olympus, Center Valley, Pa.) fitted with a digital camera controlled by the Metamorph program (Universal Imaging, West Chester, Pa.). Calcein-positive cells were quantitated using Metamorph software (Universal Imaging, West Chester, Pa.) (FIG. 4A)."}, "TS217 cells [3]": {"system": "TS217 cells", "assay": "GM130 immunostaining of intact Golgi", "format": "cell-based, human", "details": "0.1 μg/mL tetracycline, six day induction", "protocol": "TS217 cells were plated on glass tissue culture chamber slides coated with poly-L-lysine and incubated for six days in the absence (Control) or presence of 0.1 μg/mL tetracycline (Induced) to induce alpha-synuclein expression. Following treatment, cells were fixed with 4% paraformaldehyde supplemented with 4% sucrose in phosphate-buffered saline, permeabilized with 0.2% triton in PBS, and stained with antibodies specific for the cis-Golgi tethering protein GM130 (FIG. 6A). The number of cells containing intact Golgi was reduced by almost 80% following the six day induction of alpha-synuclein (FIG. 6B)."}}, "data": [{"smiles": "CC(C)(C)n1nc(-c2ccc(Cl)cc2)c2c(N)ncnc21", "note": "[Cmp J, 1-t-Butyl-3-(4-chloro-phenyl)-1H-pyrazolo[3,4-d]pyrimidin-4-ylamine]", "values": [{"measurement": "Relative viability (ATP, ratio of induced to control), effect on alpha-synuclein-induced toxicity", "setting": "TS217 cells [1]; 0.08, 0.15, 0.3 μM compound, with tetracycline induction for 5 days, FIG. 9", "value": "rescue of alpha-synuclein-induced toxicity"}]}, {"smiles": "CN(C)[C@@H]1C(O)=C(C(N)=O)C(=O)[C@@]2(O)C(O)=C3C(=O)c4c(O)cccc4[C@@](C)(O)[C@H]3C[C@@H]12", "note": "[tetracycline]", "values": [{"measurement": "Relative cell viability decreased (ratio of induced cells to control cells)", "setting": "TS217 cells [1]; 0.1 μg/mL tetracycline, from day 3 to day 6, no other toxicity-inducing agents", "value": "over 50%"}, {"measurement": "cytotoxicity at 0.1 µg/mL", "setting": "TS217 cells [2]", "value": "~60", "unit": "%"}, {"measurement": "number of cells containing intact Golgi reduced", "setting": "TS217 cells [3]", "value": "~80", "unit": "%"}]}]}
